Where two headings read alike, the source gives them in different places.
Columns and labels:
[1] = biological target: T1, PD-L1 protein on the surface of MC38-hPDL1 tumor cells (Homo sapiens, UniProt Q9NZQ7); assay: Induction of endocytosis of PD-L1 on the surface of tumor cells (flow cytometry); assay type: cell-based; details: for Emax: MC38-hPDL1 cells, read-out: MC38 maximum endocytosis rate
T1 construct: expressed in transfected cells; host or cells: MC38-hPDL1 (mouse colon cancer cells)
Method in brief: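 IC50 comes from nonlinear fits of endocytosis rate, calculated from the loss of surface PE-anti-CD274 flow signal relative to vehicle. Cells were MC38 mouse colon cancer cells engineered to express high human PD-L1. Compound exposure lasted 16 h at 37 °C, 5% CO2.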

[2] = tested on: CHO-PDL1/Jurkat-PD1 cell pathway; assay: Inhibition of CHO-PDL1/Jurkat-PD1 cell pathway (NFAT luciferase reporter); assay type: cell-based; details: for EC50: 6 hours incubation, luciferase signal; for maximal fold induction: relative to the signal value of the non-dosed group, read-out: Maximum induction fold
Method in brief: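 CHO-K1 cells stably expressing PD-L1, plated overnight, then co-cultured with PD-1/NFAT-luc2 Jurkat cells plus compounds in RPMI 1640 with 2% FBS for 6 h at 37 °C. Luminescence read after One-Glo, 10 min at RT. EC50 fitted from the concentration–signal curve; maximum induction fold calculated relative to the non-dosed group.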

[3] = inducing endocytosis of PD-L1, MC38-hPDL1 cells, 16 hours incubation, read-out: MC38 IC50

T1 sequence (Q9NZQ7 19-290): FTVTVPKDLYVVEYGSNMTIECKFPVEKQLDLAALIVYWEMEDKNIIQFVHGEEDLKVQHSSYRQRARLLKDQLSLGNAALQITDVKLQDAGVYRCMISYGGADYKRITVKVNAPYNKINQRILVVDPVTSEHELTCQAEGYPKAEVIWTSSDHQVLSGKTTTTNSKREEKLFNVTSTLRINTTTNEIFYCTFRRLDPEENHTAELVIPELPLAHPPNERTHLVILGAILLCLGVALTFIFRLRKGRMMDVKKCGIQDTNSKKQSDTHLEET

Row | SMILES | Emax ([1]; 16 hours incubation) | IC50 [1, 3] | EC50 [2] | maximal fold induction [2] | IC50 [1]
1 | COc1nc(-c2cccc(-c3cccc(NC(=O)c4nc5c(n4C)CCN(C)C5)c3Cl)c2Cl)ccc1CN1CC2(C1)CN(C(C)=O)C2 [Embodiment 123, N-(3′-(5-((6-Acetyl-2,6-diazaspiro[3.3]heptan-2-yl)methyl)-6-methoxypyridin-2-yl)-2,2′-dichloro-[1,1′-biphenyl]-3-yl)-1,5-dimethyl-4,5,6,7-tetrahydro-1H-imidazo[4,5-c]pyridine-2-carboxamide] | 97% | 0.4 nM | 27 nM | 3.4 | 
2 | COc1nc(-c2cccc(-c3cccc(NC(=O)c4nc5c(n4C)CCN(C)C5)c3Cl)c2Cl)ccc1CN1CC2(CCC(=O)N2)C1 [Embodiment 126, N-(2,2′-Dichloro-3′-(6-methoxy-5-((6-carbonyl-2,5-diazaspiro[3.4]octan-2-yl)methyl)pyridin-2-yl)-[1,1′-biphenyl]-3-yl)-1,5-dimethyl-4,5,6,7-tetrahydro-1H-imidazo[4,5-c]pyridine-2-carboxamide] | 97% | 1 nM | 94 nM | 3.5 | 
3 | COc1nc(-c2cccc(-c3cccc(NC(=O)c4nc5c(n4C)CCN(C)C5)c3Cl)c2Cl)cnc1CN1CC2(C1)CN(C(C)=O)C2 [Embodiment 152, N-(3′-(5-((6-Acetyl-2,6-diazaspiro[3.3]heptan-2-yl)methyl)-6-methoxypyrazin-2-yl)-2,2′-dichloro-[1,1′-biphenyl]-3-yl)-1,5-dimethyl-4,5,6,7-tetrahydro-1H-imidazo[4,5-c]pyridine-2-carboxamide] | 97% | 0.6 nM | 66 nM | 3.4 | 
4 | COc1nc(-c2cccc(-c3cccc(NC(=O)c4nc5c(n4C)CCN(C)C5)c3Cl)c2Cl)ccc1CN1CC(O)(CO)C1 [Embodiment 173, N-(2,2′-Dichloro-3′-(5-((3-hydroxy-3-(hydroxymethyl)azetidin-1-yl)methyl)-6-methoxypyridin-2-yl)-[1,1-biphenyl]-3-yl)-1,5-dimethyl-4,5,6,7-tetrahydro-1H-imidazo[4,5-c]pyridine-2-carboxamide] | 97% | 0.9 nM | 82 nM | 3.7 | 
5 | COc1nc(-c2cccc(-c3cccc(NC(=O)c4nc5c(n4C)CCN(C)C5)c3Cl)c2Cl)ccc1CNC(CO)CO [Embodiment 174, N-(2,2′-Dichloro-3′-(5-(((1,3-dihydroxypropan-2-yl)amino)methyl)-6-methoxypyridin-2-yl)-[1,1′-biphenyl]-3-yl)-1,5-dimethyl-4,5,6,7-tetrahydro-1H-imidazo[4,5-c]pyridine-2-carboxamide] | 97% | 1 nM | 66 nM | 3.5 | 
6 | COc1nc(-c2cccc(-c3cccc(NC(=O)c4nc5c(n4C)CCN(C)C5)c3Cl)c2Cl)ccc1CN1CC(NC(C)=O)C1 [Embodiment 180, N-(3′-(5-((3-Acetylaminoazetidin-1-yl)methyl)-6-methoxypyridin-2-yl)-2,2′-dichloro-[1,1′-biphenyl]-3-yl)-1,5-dimethyl-4,5,6,7-tetrahydro-1H-imidazo[4,5-c]pyridine-2-carboxamide] | 96% | 0.6 nM | 47 nM | 3.1 | 
7 | COc1nc(-c2cccc(-c3cccc(NC(=O)c4nc5c(n4C)CCN(C)C5)c3Cl)c2Cl)ccc1CN1CC2(C1)CN(C(=O)C(C)C)C2 [Embodiment 186, N-(2,2′-Dichloro-3′-(5-((6-isobutyryl-2,6-diazaspiro[3.3]heptan-2-yl)methyl)-6-methoxypyridin-2-yl)-[1,1′-biphenyl]-3-yl)-1,5-dimethyl-4,5,6,7-tetrahydro-1H-imidazo[4,5-c]pyridine-2-carboxamide] | 96% | 0.7 nM | 61 nM | 3 | 
8 | CCC(=O)N1CC2(CN(Cc3ccc(-c4cccc(-c5cccc(NC(=O)c6nc7c(n6C)CCN(C)C7)c5Cl)c4Cl)nc3OC)C2)C1 [Embodiment 188, N-(2,2′-Dichloro-3′-(6-methoxy-5-((6-propionyl-2,6-diazaspiro[3.3]heptan-2-yl)methyl)pyridin-2-yl)-[1,1′-biphenyl]-3-yl)-1,5-dimethyl-4,5,6,7-tetrahydro-1H-imidazo[4,5-c]pyridine-2-carboxamide] | 97% |  | 93 nM | 3.8 | 0.4 nM
9 | COc1nc(-c2cccc(-c3cccc(NC(=O)c4nc5c(n4C)CCN(C)C5)c3Cl)c2Cl)ccc1CN1CC2(C1)CN(S(C)(=O)=O)C2 [Embodiment 192] | 97% | 0.3 nM | 85 nM | 3.8 | 
10 | COc1nc(-c2cccc(-c3cccc(NC(=O)c4nc5c(n4C)CCN(C)C5)c3Cl)c2Cl)cnc1CN1CC(NC(C)=O)C1 [Embodiment 218, N-(3′-(5-((3-Acetylaminoazetidin-1-yl)methyl)-6-methoxypyrazin-2-yl)-2,2′-dichloro-[1,1′-biphenyl]-3-yl)-1,5-dimethyl-4,5,6,7-tetrahydro-1H-imidazo[4,5-c]pyridine-2-carboxamide] | 95% |  | 54 nM | 2.8 | 
11 | COc1nc(-c2cccc(-c3cccc(NC(=O)c4nc5c(n4C)CCN(C)C5)c3Cl)c2Cl)ncc1CN1CC(CO)C1 [Embodiment 223, N-(2,2′-Dichloro-3′-(5-((3-(hydroxymethyl)azetidin-1-yl)methyl)-4-methoxypyrimidin-2-yl)-[1,1′-biphenyl]-3-yl)-1,5-dimethyl-4,5,6,7-tetrahydro-1H-imidazo[4,5-c]pyridine-2-carboxamide] | 94% |  | 73 nM | 3.3 | 
12 | COc1nc(-c2cccc(-c3cccc(NC(=O)c4nc5c(n4C)CCN(C)C5)c3Cl)c2Cl)ccc1CN1CC2(CC(NC(C)=O)C2)C1 [Embodiment 234, N-(3′-(5-((6-Acetylamino-2-azaspiro[3.3]heptan-2-yl)methyl)-6-methoxypyridin-2-yl)-2,2′-dichloro-[1,1′-biphenyl]-3-yl)-1,5-dimethyl-4,5,6,7-tetrahydro-1H-imidazo[4,5-c]pyridine-2-carboxamide] | 97% |  | 78 nM | 4.7 | 

Source: US20230105212A1, “BIPHENYL DERIVATIVE INHIBITOR, PREPARATION METHOD THEREFOR AND USE THEREOF” (SHANGHAI HANSOH BIOMEDICAL CO., LTD., priority 2020, published 2023)
